Patent US8242120B2 (priority 2007, dated 2012)
Entries after “also recorded” stand apart in the source; their conditions may differ.

Columns and labels:
[1] = mouse, in vivo
flu A (DUCK)-H5N1 virus = type: cell-based, Avian influenza A H5N1
CTP synthase = conditions: cited from earlier work
[2] = tested on: Avian influenza A strain H5N1 virus; type: cell-based
[3] = tested on: Venezuelan Equine Encephalitis (VEE); type: cell-based, Venezuelan equine encephalitis virus
[4] = tested on: Venezuelan equine encephalitis virus (TC-83 vaccine strain); design: species or system C3H/HeN mice; conditions: in vivo

What does the source list for `Nc1ccn([C@@H]2C[C@H](CO)[C@@H](O)[C@H]2O)c(=O)n1` [(−) carbodine, (1R,2S,3R,4R)-1-[2,3-Dihydroxy-4-(hydroxymethyl)-cyclopentan-1-yl]cytosine]?
weight loss in sham infected mice [1]: weight loss was observed; activity against H5N1 in vitro (flu A (DUCK)-H5N1 virus): good activity; inhibition of CTP synthase that converts UTP to CTP (CTP synthase): known inhibitor; activity as an inhibitor of Avian Influenza A strain H5N1 [2]: good activity; activity against VEE in vitro [3]: good activity; activity against vaccine strain (TC-83) of VEEV in C3H/HeN mouse model [4]: active; all disease signs measured ([4]; mouse): effective in significantly improving; mean day to death ([4]; mouse): efficacious in significantly improving; also recorded: effective in significantly improving; reduction in brain virus titer ([4]; mouse): 1 log; survival ([4]; mouse): efficacious in significantly improving; also recorded: effective in significantly improving; weight gain ([4]; mouse): efficacious in significantly improving; also recorded: effective in significantly improving
